Measured values: PubChem BioAssay (NCI)
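Cultured in 96-well plates, cells were exposed to test compound for 48 hours across five concentrations. GI50 is the concentration that inhibits growth by half. TGI is the concentration that stops growth completely.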

Tests used:
Test in all cases: inhibition of tumour cell growth, NCI panel, 48 h
[1] = test system: 786-0 renal
[2] = test system: A498 renal
[3] = test system: A549 NSCLC
[4] = test system: ACHN renal
[5] = test system: BT-549 breast
[6] = test system: CAKI-1 renal
[7] = test system: CCRF-CEM leukemia
[8] = test system: COLO 205 colon
[9] = test system: DU-145 prostate
[10] = test system: EKVX NSCLC
[11] = test system: HCC-2998 colon
[12] = test system: HCT-116 colon
[13] = test system: HCT-15 colon
[14] = test system: HL-60(TB) leukemia
[15] = test system: HOP-62 NSCLC
[16] = test system: HOP-92 NSCLC
[17] = test system: HS 578T breast
[18] = test system: HT29 colon
[19] = test system: IGROV1 ovarian
[20] = test system: K-562 leukemia
[21] = test system: KM12 colon
[22] = test system: LOX IMVI melanoma
[23] = test system: M14 melanoma
[24] = test system: MALME-3M melanoma
[25] = test system: MCF7 breast
[26] = test system: MDA-MB-231 breast
[27] = test system: MDA-MB-435
[28] = test system: MDA-MB-468 breast
[29] = test system: MOLT-4 leukemia
[30] = test system: NCI-H226 lung
[31] = test system: NCI-H23 lung
[32] = test system: NCI-H460 lung
[33] = test system: NCI-H522 lung
[34] = test system: NCI/ADR-RES ovarian
[35] = test system: OVCAR-3 ovarian
[36] = test system: OVCAR-4 ovarian
[37] = test system: OVCAR-5 ovarian
[38] = test system: OVCAR-8 ovarian
[39] = test system: PC-3 prostate
[40] = test system: RPMI-8226 leukemia
[41] = test system: RXF 393 renal
[42] = test system: SF-268 CNS
[43] = test system: SF-295 CNS
[44] = test system: SF-539 CNS
[45] = test system: SK-MEL-2 melanoma
[46] = test system: SK-MEL-28 melanoma
[47] = test system: SK-MEL-5 melanoma
[48] = test system: SK-OV-3 ovarian
[49] = test system: SN12C renal
[50] = test system: SNB-19 CNS
[51] = test system: SW-620 colon
[52] = test system: T-47D breast
[53] = test system: TK-10 renal
[54] = test system: U251 CNS
[55] = test system: UACC-257 melanoma
[56] = test system: UACC-62 melanoma
[57] = test system: UO-31 renal

Question: What does the source list for `Clc1cccc(N/N=C/c2c[nH]c3ccc(Br)cc23)n1`?
Answer: GI50 [1]: 6.61 µM; TGI [1]: 20.3 µM; GI50 [2]: 17 µM; TGI [2]: 32.2 µM; GI50 [3]: 11.7 µM; TGI [3]: 26.3 µM; GI50 [4]: 6.73 µM; TGI [4]: 20.1 µM; GI50 [5]: 0.296 µM; TGI [5]: 12.3 µM; GI50 [6]: 1.29 µM; TGI [6]: 12.2 µM; GI50 [7]: 0.231 µM; TGI [7]: 16 µM; GI50 [8]: 11.8 µM; TGI [8]: 24.2 µM; GI50 [9]: 8.12 µM; TGI [9]: 21 µM; GI50 [10]: 1.6 µM; TGI [10]: 14.6 µM; GI50 [11]: 4.07 µM; TGI [11]: 14.3 µM; GI50 [12]: 4.36 µM; TGI [12]: 18 µM; GI50 [13]: 3.87 µM; TGI [13]: 15.3 µM; GI50 [14]: 2.7 µM; TGI [14]: 23.9 µM; GI50 [15]: 4.28 µM; TGI [15]: 18.8 µM; GI50 [16]: 1.55 µM; TGI [16]: 8.21 µM; GI50 [17]: 2.94 µM; TGI [17]: 27.1 µM; GI50 [18]: 10.8 µM; TGI [18]: 24 µM; GI50 [19]: 0.349 µM; TGI [19]: 2.59 µM; GI50 [20]: 2 µM; TGI [20]: 29.6 µM; GI50 [21]: 2.69 µM; TGI [21]: 9.62 µM; GI50 [22]: 1.22 µM; TGI [22]: 11 µM; GI50 [23]: 4 µM; TGI [23]: 17.9 µM; GI50 [24]: 11.6 µM; TGI [24]: 24.5 µM; GI50 [25]: 3.74 µM; TGI [25]: 17 µM; GI50 [26]: 1.47 µM; TGI [26]: 8.95 µM; GI50 [27]: 2.6 µM; TGI [27]: 11.6 µM; GI50 [28]: 4.42 µM; TGI [28]: 16.6 µM; GI50 [29]: 0.416 µM; TGI [29]: 11.5 µM; GI50 [30]: 0.416 µM; TGI [30]: 18 µM; GI50 [31]: 10.2 µM; TGI [31]: 23.4 µM; GI50 [32]: 3.52 µM; TGI [32]: 15.2 µM; GI50 [33]: 1.01 µM; TGI [33]: 11.9 µM; GI50 [34]: 3.08 µM; TGI [34]: 17.6 µM; GI50 [35]: 2.11 µM; TGI [35]: 11.1 µM; GI50 [36]: 6.12 µM; TGI [36]: 23.9 µM; GI50 [37]: 10.2 µM; TGI [37]: 22.1 µM; GI50 [38]: 5.91 µM; TGI [38]: 26 µM; GI50 [39]: 1.25 µM; TGI [39]: 14 µM; GI50 [40]: 2.2 µM; TGI [40]: 20.4 µM; GI50 [41]: 1.23 µM; TGI [41]: 8.11 µM; GI50 [42]: 1.85 µM; TGI [42]: 15.3 µM; GI50 [43]: 7.12 µM; TGI [43]: 20.4 µM; GI50 [44]: 1.6 µM; TGI [44]: 15 µM; GI50 [45]: 4.85 µM; TGI [45]: 19.5 µM; GI50 [46]: 14.2 µM; TGI [46]: 27.3 µM; GI50 [47]: 10.3 µM; TGI [47]: 22 µM; GI50 [48]: 2.04 µM; TGI [48]: 16 µM; GI50 [49]: 0.695 µM; TGI [49]: 13 µM; GI50 [50]: 10.2 µM; TGI [50]: 21.8 µM; GI50 [51]: 3.22 µM; TGI [51]: 15.5 µM; GI50 [52]: 3.38 µM; TGI [52]: 20.3 µM; GI50 [53]: 14 µM; TGI [53]: 27.2 µM; GI50 [54]: 8.5 µM; TGI [54]: 23.6 µM; GI50 [55]: 12 µM; TGI [55]: 25.2 µM; GI50 [56]: 0.718 µM; TGI [56]: 18.1 µM; GI50 [57]: 0.391 µM; TGI [57]: 14.8 µM
